The record followed here is US11981686B2, “Urea compound having substituent” (DAIICHI SANKYO COMPANY, LIMITED, priority 2019, dated 2024).

SIRT6 enzyme, sequence (Q8N6T7 whole entry, species assumed): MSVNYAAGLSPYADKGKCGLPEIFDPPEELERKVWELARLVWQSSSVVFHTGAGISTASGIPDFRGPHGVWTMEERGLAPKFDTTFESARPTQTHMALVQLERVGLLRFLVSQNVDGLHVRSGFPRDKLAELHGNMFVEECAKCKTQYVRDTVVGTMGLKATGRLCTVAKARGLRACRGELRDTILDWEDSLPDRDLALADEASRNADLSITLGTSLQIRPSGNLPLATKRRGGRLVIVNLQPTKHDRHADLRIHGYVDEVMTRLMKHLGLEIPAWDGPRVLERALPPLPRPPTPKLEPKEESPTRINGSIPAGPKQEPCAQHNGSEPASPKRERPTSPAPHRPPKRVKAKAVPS

This test has as its target SIRT6 enzyme (Homo sapiens, UniProt Q8N6T7). Kind of test: Measurement of deacetylation activity (SIRT6, AlphaLISA, H3K9(Ac) peptide). Type of test: biochemical. To be noted: SIRT6 25 ng/mL, H3K9(Ac) biotin peptide 2 nM, NAD 10 μM, room temperature 30 minutes, duplicate. The essentials:
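Activation read as EC150, the concentration giving 150% activity relative to enzyme/no-enzyme DMSO controls, via variable-slope fit. Deacetylation of 2 nM biotinylated H3K9(Ac) peptide with 10 μM NAD+ by 25 ng/mL SIRT6 ran 30 min at room temperature, pH 8.0, then AlphaLISA detection of unmodified H3K9.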
In the case of `COc1cccc(-c2noc(N3CCc4nc(NC(=O)NC5CCOCC5)sc4C3)n2)c1` [Example 108, N-{5-[3-(3-methoxyphenyl)-1,2,4-oxadiazol-5-yl]-4,5,6,7-tetrahydro[1,3]thiazolo[5,4-c]pyridin-2-yl}-N′-oxan-4-ylurea], the “EC150 (the concentration of the compound showing a relative enzyme activity of 150%)” value is 2.4 μm. Take `O=C(Nc1nc2c(s1)[C@@H]1COC[C@H](C2)N1c1ncc(-c2cccc(OC(F)F)n2)o1)N[C@@H]1COC[C@H]1O` [Example 175, N-[(4S,8S)-10-{5-[6-(difluoromethoxy)pyridin-2-yl]-1,3-oxazol-2-yl}-4,7,8,9-tetrahydro-5H-4,8-epiminooxocino[5,4-d][1,3]thiazol-2-yl]-N′-[(3R,4S)-4-hydroxyoxolan-3-yl]urea]: the “EC150 (the concentration of the compound showing a relative enzyme activity of 150%)” value was found to be 0.27 μm. The same measure for `Cc1cc2nc(N3[C@@H]4COC[C@H]3c3sc(NC(=O)NCC(C)(C)O)nc3C4)oc2cc1C#N` [Example 51, N-[(4S,8S)-10-(6-cyano-5-methyl-1,3-benzoxazol-2-yl)-4,7,8,9-tetrahydro-5H-4,8-epiminooxocino[5,4-d][1,3]thiazol-2-yl]-N′-(2-hydroxy-2-methylpropyl)urea]: 0.47 μm; for `C[C@H](CO)NC(=O)Nc1nc2c(s1)[C@@H]1COC[C@H](C2)N1c1ncc(-c2cccc(OC(F)F)n2)o1` [Example 66, N-[(4S,8S)-10-{5-[6-(difluoromethoxy)pyridin-2-yl]-1,3-oxazol-2-yl}-4,7,8,9-tetrahydro-5H-4,8-epiminooxocino[5,4-d][1,3]thiazol-2-yl]-N′-[(2R)-1-hydroxypropan-2-yl]urea]: 0.39 μm; for `CNC(=O)Nc1nc2c(s1)[C@H]1CN(C(C)=O)C[C@@H](C2)N1c1nc(-c2ccc(F)cc2)no1` (relative stereo) [Example 23, (−)-N-{(4R*,8R*)-6-acetyl-10-[3-(4-fluorophenyl)-1,2,4-oxadiazol-5-yl]-4,5,6,7,8,9-hexahydro-4,8-epimino[1,3]thiazolo[5,4-d]azocin-2-yl}-N′-methylurea]: 0.19 μm.

In the case of `CNC(=O)Nc1nc2c(s1)[C@@H]1CCC[C@H](C2)N1c1nc(-c2ccc(F)cc2)no1` (relative stereo) [Example 12, N-{(5R*,9S*)-10-[3-(4-fluorophenyl)-1,2,4-oxadiazol-5-yl]-4,5,6,7,8,9-hexahydro-5,9-epiminocycloocta[d][1,3]thiazol-2-yl}-N′-methylurea], the “EC150 (the concentration of the compound showing a relative enzyme activity of 150%)” value was found to be 1.4 μm. With `COc1cccc(-c2cc(N3[C@@H]4COC[C@H]3c3sc(NC(=O)N[C@@H]5CCOC5)nc3C4)no2)n1` [Example 163, N-{(4S,8S)-10-[5-(6-methoxypyridin-2-yl)-1,2-oxazol-3-yl]-4,7,8,9-tetrahydro-5H-4,8-epiminooxocino[5,4-d][1,3]thiazol-2-yl}-N′-[(3R)-oxolan-3-yl]urea] the figure was 1.6 μm.

On to `COc1ccc(-c2noc(N3CCc4nc(NC(=O)NC5CCOCC5)sc4C3)n2)cc1` [Example 107, N-{5-[3-(4-methoxyphenyl)-1,2,4-oxadiazol-5-yl]-4,5,6,7-tetrahydro[1,3]thiazolo[5,4-c]pyridin-2-yl}-N′-oxan-4-ylurea], for which the “EC150 (the concentration of the compound showing a relative enzyme activity of 150%)” value is 2.3 μm. Consider `CNC(=O)Nc1nc2c(s1)C1CN(C(=O)OC)CC(C2)N1c1nc(-c2ccc(F)cn2)no1` (centres unmarked) [Example 142, Methyl 10-[3-(5-fluoropyridin-2-yl)-1,2,4-oxadiazol-5-yl]-2-[(methylcarbamoyl)amino]-4,7,8,9-tetrahydro-4,8-epimino[1,3]thiazolo[5,4-d]azocine-6(5H)-carboxylate], for which the “EC150 (the concentration of the compound showing a relative enzyme activity of 150%)” value came out at 3.3 μm. Take `O=C(NC[C@H]1COCCO1)Nc1nc2c(s1)[C@@H]1COC[C@H](C2)N1c1nc(-c2ccc(F)cc2)no1` [Example 29, N-{[(2S)-1,4-dioxan-2-yl]methyl}-N′-{(4S,8S)-10-[3-(4-fluorophenyl)-1,2,4-oxadiazol-5-yl]-4,7,8,9-tetrahydro-5H-4,8-epiminooxocino[5,4-d][1,3]thiazol-2-yl}urea]: the “EC150 (the concentration of the compound showing a relative enzyme activity of 150%)” value came to 0.69 μm. With `O=C(Nc1nc2c(s1)CN(c1nc(C3CCC(F)(F)CC3)no1)CC2)NC1(CO)CC1` [Example 105, N-{5-[3-(4,4-difluorocyclohexyl)-1,2,4-oxadiazol-5-yl]-4,5,6,7-tetrahydro[1,3]thiazolo[5,4-c]pyridin-2-yl}-N′-[1-(hydroxymethyl)cyclopropyl]urea], the “EC150 (the concentration of the compound showing a relative enzyme activity of 150%)” value amounted to 2 μm. `O=C(Nc1nc2c(s1)[C@@H]1COC[C@H](C2)N1c1nc2cc(OC(F)(F)F)ccc2o1)N[C@H]1C[C@H](O)C1` [Example 54, N-[(1r,3S)-3-hydroxycyclobutyl]-N′-[(4S,8S)-10-(5-trifluoromethoxy-1,3-benzoxazol-2-yl)-4,7,8,9-tetrahydro-5H-4,8-epiminooxocino[5,4-d][1,3]thiazol-2-yl]urea]: the “EC150 (the concentration of the compound showing a relative enzyme activity of 150%)” value was 0.48 μm. Consider `CNC(=O)Nc1nc2c(s1)CN(c1nc(C3CCC(F)(F)CC3)no1)CC2` [Example 1, N-{5-[3-(4,4-difluorocyclohexyl)-1,2,4-oxadiazol-5-yl]-4,5,6,7-tetrahydro[1,3]thiazolo[5,4-c]pyridin-2-yl}-N′-methylurea], for which the “EC150 (the concentration of the compound showing a relative enzyme activity of 150%)” value came to 1.7 μm. Turning to `CNC(=O)Nc1nc2c(s1)C1COCC(C2)N1c1nnc(-c2cccc(C(F)(F)F)c2)o1` (centres unmarked) [Example 110, N-methyl-N′-(10-{5-[3-(trifluoromethyl)phenyl]-1,3,4-oxadiazol-2-yl}-4,7,8,9-tetrahydro-5H-4,8-epiminooxocino[5,4-d][1,3]thiazol-2-yl)urea], the “EC150 (the concentration of the compound showing a relative enzyme activity of 150%)” value was found to be 3.7 μm.

Regarding `COC(=O)N1C[C@H]2Cc3nc(NC(=O)NCC(C)(C)O)sc3[C@@H](C1)N2c1nc(C2(C(F)(F)F)CC2)no1` (relative stereo) [Example 33, Methyl (4R*,8R*)-2-{[(2-hydroxy-2-methylpropyl)carbamoyl]amino}-10-{3-[1-(trifluoromethyl)cyclopropyl]-1,2,4-oxadiazol-5-yl}-4,7,8,9-tetrahydro-4,8-epimino[1,3]thiazolo[5,4-d]azocine-6(5H)-carboxylate], the “EC150 (the concentration of the compound showing a relative enzyme activity of 150%)” value is given as 1.6 μm.

On to `COc1cccc(-c2cnc(N3[C@@H]4COC[C@H]3c3sc(NC(=O)N[C@@H]5CCOC5)nc3C4)o2)n1` [Example 185, N-{(4S,8S)-10-[5-(6-methoxypyridin-2-yl)-1,3-oxazol-2-yl]-4,7,8,9-tetrahydro-5H-4,8-epiminooxocino[5,4-d][1,3]thiazol-2-yl}-N′-[(3R)-oxolan-3-yl]urea], for which the “EC150 (the concentration of the compound showing a relative enzyme activity of 150%)” value is 0.4 μm. `CC(C)(O)CNC(=O)Nc1nc2c(s1)CN(c1nc(C3CCC(F)(F)CC3)no1)CC2` [Example 88, N-{5-[3-(4,4-difluorocyclohexyl)-1,2,4-oxadiazol-5-yl]-4,5,6,7-tetrahydro[1,3]thiazolo[5,4-c]pyridin-2-yl}-N′-(2-hydroxy-2-methylpropyl)urea]: the “EC150 (the concentration of the compound showing a relative enzyme activity of 150%)” value was determined as 1.1 μm. For the compound `CCNC(=O)Nc1nc2c(s1)C1CN(C(C)=O)CC(C2)N1c1nc(-c2ccc(F)cc2)no1` (centres unmarked) [Example 136, N-{6-acetyl-10-[3-(4-fluorophenyl)-1,2,4-oxadiazol-5-yl]-4,5,6,7,8,9-hexahydro-4,8-epimino[1,3]thiazolo[5,4-d]azocin-2-yl}-N′-ethylurea], the “EC150 (the concentration of the compound showing a relative enzyme activity of 150%)” value amounted to 0.34 μm.

Take `COc1cccc(-c2cnc(N3[C@@H]4COC[C@H]3c3sc(NC(=O)N[C@H]5C[C@H](O)C5)nc3C4)o2)n1` [Example 78, N-[(1r,3S)-3-hydroxycyclobutyl]-N′-{(4S,8S)-10-[5-(6-methoxypyridin-2-yl)-1,3-oxazol-2-yl]-4,7,8,9-tetrahydro-5H-4,8-epiminooxocino[5,4-d][1,3]thiazol-2-yl}urea]: the “EC150 (the concentration of the compound showing a relative enzyme activity of 150%)” value was 0.41 μm. With `CC(C)(CO)NC(=O)Nc1nc2c(s1)[C@@H]1COC[C@H](C2)N1c1ncc(-c2cccc(OC(F)F)c2)o1` [Example 170, N-[(4S,8S)-10-{5-[3-(difluoromethoxy)phenyl]-1,3-oxazol-2-yl}-4,7,8,9-tetrahydro-5H-4,8-epiminooxocino[5,4-d][1,3]thiazol-2-yl]-N′-(1-hydroxy-2-methylpropan-2-yl)urea] the figure was 1.2 μm; with `C[C@H](CO)NC(=O)Nc1nc2c(s1)C1CCC(C2)N1c1nc2cc(S(C)(=O)=O)ccc2o1` (stereo partly drawn) [Example 152, N-[(2R)-1-hydroxypropan-2-yl]-N′-{9-[5-(methanesulfonyl)-1,3-benzoxazol-2-yl]-5,6,7,8-tetrahydro-4H-5,8-epiminocyclohepta[d][1,3]thiazol-2-yl}urea], 2.7 μm; with `CNC(=O)Nc1nc2c(s1)C1COCC(C2)N1c1ncc(-c2cccc(C(=O)C3CC3)c2F)o1` (centres unmarked) [Example 116, N-(10-{5-[3-(cyclopropanecarbonyl)-2-fluorophenyl]-1,3-oxazol-2-yl}-4,7,8,9-tetrahydro-5H-4,8-epiminooxocino[5,4-d][1,3]thiazol-2-yl)-N′-methylurea], 3.1 μm. `CCOc1cccc(-c2nnc(N3[C@@H]4COC[C@H]3c3sc(NC(=O)NC)nc3C4)o2)c1` [Example 121, N-{(4S,8S)-10-[5-(3-ethoxyphenyl)-1,3,4-oxadiazol-2-yl]-4,7,8,9-tetrahydro-5H-4,8-epiminooxocino[5,4-d][1,3]thiazol-2-yl}-N′-methylurea]: the “EC150 (the concentration of the compound showing a relative enzyme activity of 150%)” value was 2.1 μm.
